Source: PubChem BioAssay AID1431 (PCMD, 2008)
Calls of active or inactive are those of the source. No rule for the calls is given here.

Target: Kallikrein-5 (Homo sapiens) (UniProt Q9Y337)
Assay: human KLK5 inhibitor potency, dose response, biochemical, 1536-well (AID 1431)
Details: recombinant KLK5 enzyme activity, fluorogenic substrate

Sequence of Kallikrein-5 (Homo sapiens) (Q9Y337 67-293 limits assumed): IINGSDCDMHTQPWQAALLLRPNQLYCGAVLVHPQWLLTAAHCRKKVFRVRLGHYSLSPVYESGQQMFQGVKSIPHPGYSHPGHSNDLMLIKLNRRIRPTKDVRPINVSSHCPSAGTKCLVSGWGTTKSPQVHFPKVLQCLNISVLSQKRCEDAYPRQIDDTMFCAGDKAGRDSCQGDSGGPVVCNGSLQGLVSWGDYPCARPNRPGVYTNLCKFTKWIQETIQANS

SMILES	IC50
Oc1ccc2ccccc2c1C=NC12CN3CCN(CN(C3)C1)C2	> 50 µM (inactive)
COc1cccc(/C(O)=C2/C(=O)C(=O)N(CCCN3CCOCC3)C2c2ccncc2)c1 (stereo unspecified)	46.3 µM
COC(/C=C/Nc1ccc(Br)cc1)=C(C#N)C#N	> 50 µM (inactive)
CC(C)(CO)N=Cc1c(O)[nH]c2ccccc12	> 50 µM (inactive)
CC1=C(C(=O)N2CCCCC2)C(c2cccs2)C2=C(CCCC2=O)N1 (stereo unspecified)	> 50 µM (inactive)
COc1ccc(Oc2ccccc2/C=N/O)cc1	> 50 µM (inactive)
COc1ccc(C2C(C(=O)Nc3ccccc3OC)=C(C)Nc3ncnn32)cc1 (stereo unspecified)	> 50 µM (inactive)
O=c1[nH]c(=O)n(Cc2ccco2)c(O)c1C=NCc1ccco1	> 50 µM (inactive)
CC1(C)CC(=O)C(C=Nc2ccccc2Sc2ccccc2)=C(O)C1	> 50 µM (inactive)
O=C1CC(Sc2ccc(Cl)cc2)C(=O)N1c1ccc2c(c1)OCCO2 (stereo unspecified)	> 50 µM (inactive)
CCN(CC)C(=O)c1sc(NC(=O)Cc2ccccc2)c(C#N)c1C	> 50 µM (inactive)
CCOC(=O)c1ccc(N=C(c2ccccc2)c2c(O)n(C)c(=O)n(C)c2=O)cc1	> 50 µM (inactive)
COc1cccc(N2CCN(C3CC(=O)N(c4ccc(F)c(Cl)c4)C3=O)CC2)c1 (stereo unspecified)	> 50 µM (inactive)
Cc1cc(N/N=C/c2ccc(O)cc2)nc(NS(=O)(=O)c2ccccc2)n1	> 50 µM (inactive)
COC(=O)c1[nH]c(C)c(/C(O)=C2\C(=O)C(=O)N(CCN(C)C)C2c2cccc(OC)c2OC)c1C (stereo unspecified)	> 50 µM (inactive)
O=C1CC(Nc2ccccc2)C(=O)N1c1ccc(N2CCOCC2)cc1 (stereo unspecified)	> 50 µM (inactive)
O=C1CC(SCc2nc3ccccc3[nH]2)C(=O)N1c1ccc(F)cc1 (stereo unspecified)	> 50 µM (inactive)
O=C1CC(c2ccccc2)CC(O)=C1C=NCCN1CCN(C(=S)Nc2cccc(Cl)c2)CC1 (stereo unspecified)	> 50 µM (inactive)
Cc1cccc(NC2SC(=O)N(c3ccccc3)C2=O)c1 (stereo unspecified)	> 50 µM (inactive)
COc1ccc(CN2C(=O)c3cccnc3C2Nc2cc(Cl)ccc2OC)cc1 (stereo unspecified)	7.23 µM
CCC(=O)N1c2ccccc2NC2=C(C(=O)CCC2)C1c1ccc(N(C)C)cc1 (stereo unspecified)	> 50 µM (inactive)
COc1ccc(OC)c(/C=N/Nc2cc(C)nc(N3CCOCC3)n2)c1	> 50 µM (inactive)

SMILES	IC50
CCOC(=O)C1=C(CC)Nc2ccccc2N=C1NC(=O)CCN1C(=O)C2CCCCC2C1=O (stereo unspecified)	> 50 µM (inactive)
COc1ccc(N2C(N)=C(C#N)C(c3cccnc3)C3=C2CC(C)(C)CC3=O)cc1 (stereo unspecified)	> 50 µM (inactive)
O=C(Nc1ccccc1)c1cccc(N2C(=O)CCC2=O)c1	> 50 µM (inactive)
N#CC1=C(N)NC(SCc2ccccc2)=C(C#N)C12CCCC2	> 50 µM (inactive)
COC(=O)c1cc(N2C(=O)C3C(C2=O)C2(C)C=CC3(C)O2)ccc1Cl (stereo unspecified)	> 50 µM (inactive)
Cc1ccc(NC2c3ncccc3C(=O)N2c2ccccc2C)cc1C (stereo unspecified)	5.53 µM
Cc1cc(N2C(=O)CC(Cc3ccc(Cl)cc3)C2=O)no1 (stereo unspecified)	> 50 µM (inactive)
CCC/S(C)=N/S(=O)(=O)c1ccc(C)cc1 (stereo unspecified)	> 50 µM (inactive)
CC(C)n1c(=O)c(C=Nc2ccc(Br)cc2)c(O)n(Cc2ccco2)c1=O	> 50 µM (inactive)
O=C(N/N=C\c1cccc([N+](=O)[O-])c1O)C1COc2ccccc2O1 (stereo unspecified)	> 50 µM (inactive)
CC(=O)c1ccc(N2C(=O)C3C(C2=O)C(C(=O)c2ccc(Cl)cc2)N2CCCC32)cc1 (stereo unspecified)	> 50 µM (inactive)
COc1ccc(N2C(=O)CC(Nc3cccc([N+](=O)[O-])c3)C2=O)cc1 (stereo unspecified)	> 50 µM (inactive)
Oc1cccc(NC(=S)N=Nc2c(O)[nH]c3ccccc23)c1	> 50 µM (inactive)
O=C(N/N=C/c1cc([N+](=O)[O-])ccc1O)c1cccc2cc[nH]c12	> 50 µM (inactive)
CC(=O)C1=C(C)NC(C)=C(C(C)=O)C1c1cccs1	> 50 µM (inactive)
COc1ccc2c(c1)C(c1ccc([N+](=O)[O-])cc1)=NNC(c1ccco1)=N2	> 50 µM (inactive)
CC1(C)CC(=O)CC(=NCC(=O)O)C1	> 50 µM (inactive)
O=C(O)c1cc(/C=N\O)ccc1OCc1ccccc1	> 50 µM (inactive)
Cc1c(-c2cccs2)[n+](=O)c2c(n1[O-])CCC2	> 50 µM (inactive)
O=c1c(/C=N/O)c(Nc2ccccc2)nc2ccccn12	> 50 µM (inactive)
CCOC(=O)C1=C(N)OC2=C(C(=O)CCC2)C12C(=O)N(CC(N)=O)c1ccccc12 (stereo unspecified)	> 50 µM (inactive)
Cc1cc(/C(O)=C2\C(=O)C(=O)N(CCN(C)C)C2c2ccncc2)ccc1OCc1ccccc1 (stereo unspecified)	> 50 µM (inactive)

SMILES	IC50
Cc1ccccc1NC(=O)Cn1c(O)c(N=NC(=O)c2ccccc2O)c2ccccc21	> 50 µM (inactive)
COc1ccc2cc(C3C(C#N)=C(N)OC(C)=C3C(C)=O)c(Cl)nc2c1 (stereo unspecified)	> 50 µM (inactive)
CCOC(=O)C1(C)C=C(Nc2cccc(OC)c2)C(=O)N1c1ccccc1 (stereo unspecified)	> 50 µM (inactive)
CC1CC(C)(C)n2c(O)c(N=NC(N)=S)c3cccc1c32 (stereo unspecified)	> 50 µM (inactive)
COC(=O)c1sc(N2C(=O)C(O)=C(C(=O)c3ccc(C)o3)C2c2ccc(F)cc2)nc1C (stereo unspecified)	> 50 µM (inactive)
O=C1c2ccccc2C(=O)N1/N=C/c1ccc(O)c(O)c1O	> 50 µM (inactive)
N#C/C(=N\O)c1nc2ccccc2s1	> 50 µM (inactive)
Cc1ccc(Cn2c(O)c(N=NC(=S)Nc3ccccc3F)c3cc(S(=O)(=O)N4CCOCC4)ccc32)cc1	> 50 µM (inactive)
O=C1C(C=NCCCN2CCOCC2)=C(O)c2ccccc21	> 50 µM (inactive)
CCOC(=O)C1CCCN(C2CC(=O)N(c3ccc(C)cc3)C2=O)C1 (stereo unspecified)	> 50 µM (inactive)
CCC(=O)N1CCN(CCN=CC2=C(O)CC(C)(C)CC2=O)CC1	> 50 µM (inactive)
CC1=C(C(N)=O)C(c2ccccn2)n2nc(-c3ccccc3Cl)nc2N1 (stereo unspecified)	> 50 µM (inactive)
Cc1cc2c(C)nc(N/N=C/c3ccc([N+](=O)[O-])cc3)nc2o1	> 50 µM (inactive)
N#Cc1c(N)nc2c3c(sc(=N)c2c1N)NC(=O)CC3c1c(F)cccc1Cl (stereo unspecified)	> 50 µM (inactive)
COc1ccc(C2C(C(C)=O)=C(O)C(=O)N2c2nccs2)cc1OC (stereo unspecified)	26 µM
COc1cccc(N2C(=O)CC(NNc3nc4ccccc4s3)C2=O)c1 (stereo unspecified)	> 50 µM (inactive)
Cc1cc(C)n(CC2CC(=O)N(c3ccc(Cl)c(Cl)c3)C2=O)n1 (stereo unspecified)	> 50 µM (inactive)
Cc1ccc(-c2[nH]nc3c2C(c2ccoc2)C(C#N)=C(N)O3)cc1C (stereo unspecified)	> 50 µM (inactive)
COc1ccc(-c2[nH]nc3c2C(c2ccsc2)C(C#N)=C(N)O3)cc1 (stereo unspecified)	> 50 µM (inactive)
COc1ccc2c(c1)C(c1ccc(N3CCOCC3)cc1)=NNC(c1cccnc1)=N2	> 50 µM (inactive)
CCCC(C)C1C(C#N)=C(N)Oc2c1c(=O)oc1ccccc21 (stereo unspecified)	> 50 µM (inactive)
CCOc1cc(/C=N/Nc2nc(Nc3ccccc3)nc(N3CCCCC3)n2)ccc1OCC(=O)O	> 50 µM (inactive)
